Set-up: species or system rats
Details: rat, in vivo
Protocol: Eight-week-old female rats were used, with five per group. The rats were administered 100 μL/kg of the test sample into the nasal cavities once a day, for 7 continuous days. On the 8th day the nasal cavities were extracted, and after dividing them into 3 parts from the nasal cavity opening to the deep end of the nasal cavity, they were fixed with formalin to prepare specimens. After 10-14 days of fixing, a histopathological examination was made of the state of the mucosa, exudation and any bleeding.
Mild irritation was judged when abnormalities were found in the nasal mucosa at sections near the nasal cavity opening, and moderate to severe irritation was judged when the sections where abnormalities were found were further to the deep end. Moderate or greater irritation was also judged when degeneration, ablation, exudation or bleeding was found on the nasal mucosa epithelium at sections near the nasal cavity opening.
As controls there were used physiological saline and commercially available desmopressin (Kyowa Hakko Kogyo, KK.)

SMILES | Nasal cavity mucosa irritation: Mild | Nasal cavity mucosa irritation: Moderate | Nasal cavity mucosa irritation: Normal | Nasal cavity mucosa irritation: Severe | Nasal mucosa irritation, histopathological finding / judgement (in words)
NC(=O)CC[C@@H]1NC(=O)[C@H](Cc2ccccc2)NC(=O)[C@H](Cc2ccc(O)cc2)NC(=O)CCSSC[C@@H](C(=O)N2CCC[C@H]2C(=O)N[C@H](CCCN=C(N)N)C(=O)NCC(N)=O)NC(=O)[C@H](CC(N)=O)NC1=O [Desmopressin, desmopressin] | 0 | 0 | 5 | 0 | No irritation
C[C@H](CCC(=O)O)[C@H]1CC[C@H]2[C@@H]3CC[C@@H]4C[C@H](O)CC[C@]4(C)[C@H]3C[C@H](O)[C@]12C [sodium deoxycholate] | – | – | – | – | irritating effect on the nasal cavity mucosa
